Results from patent US20110177105A1, “Novel Selective Inhibitors of Ubiquitin Specific Protease 7, the Pharmaceutical Compositions Thereof and Their Therapeutic Applications” (priority 2010, published 2011).

Key:
UCH-L1 = biological target: T1, UCH-L1 (Homo sapiens, UniProt P09936); experiment: UCH-L1 activity assay (Ub-AMC); format: biochemical; details: 300 nM Ub-AMC, 2.5 nM enzyme
T1 sequence (P09936 1-223): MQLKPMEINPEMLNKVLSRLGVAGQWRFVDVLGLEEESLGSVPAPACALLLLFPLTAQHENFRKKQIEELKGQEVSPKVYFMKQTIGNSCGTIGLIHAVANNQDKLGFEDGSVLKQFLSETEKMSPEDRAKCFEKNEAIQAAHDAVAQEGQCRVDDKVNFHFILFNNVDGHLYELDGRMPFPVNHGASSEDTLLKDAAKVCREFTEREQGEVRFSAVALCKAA
Experimental: UCH-L1 was diluted in USP buffer (50 mM Tris HCl; 0.5 mM EDTA; 5 mM DTT; 0.01% Triton X-100; Bovine Serum Albumin 0.05 mg·ml^−1 pH 7.6). Compounds stocks (100 mM) were stored at −20° C. in DMSO. Compounds were tested at different concentrations: from 200 μM to 91 nM.
Reactions were performed as duplicates in Black 384 well plates (small volume microplates; Greiner; 10 μl final reaction volume). The substrate concentration for UCH-L1 was 300 nM Ub-AMC (Boston Biochem). The concentration of the enzyme (UCH-L1) in specificity assays was 2.5 nM. The concentrations were determined in order to perform specificity assays under initial velocities at fixed substrate concentration. Compounds were pre-incubated with enzymes for 30 minutes at 25° C. Reactions were initiated by addition of substrate to the plates containing the enzymes (+/−compounds) diluted in assay buffer. Reactions were incubated for 60 minutes at 37° C. Reactions were stopped by adding acetic acid (100 mM final). Readings were performed on a Pherastar Fluorescent Reader (BMG). λ Emission 380 nm; λ Excitation=460 nm. Data (mean values+/−standard deviation) were analyzed as % of control (no compound) and plotted as percentage versus the Log of the compound concentration using GraphPad (Prism). Data were fitted to a sigmoidal model (variable slope).

USP7 = USP7 (Homo sapiens, UniProt Q93009); experiment: USP7 activity assay (Ub-AMC); format: biochemical; set-up: Full-length wild-type human USP7 and its catalytic mutant (cysteine 223 replaced by alanine, C223A) were produced as N-terminally His-tagged fusions; His tag (pFastBac-HT) (N); made in house; host or cells: Spodoptera frugiperda Sf9 (or High Five) insect cells, baculovirus; details: 300 nM Ub-AMC, 100 pM enzyme, 30 min pre-incubation; read-out: USP7 (inhibition of deubiquitinating activity)
Sequence of USP7 (Q93009 whole entry, the tested form may be a part): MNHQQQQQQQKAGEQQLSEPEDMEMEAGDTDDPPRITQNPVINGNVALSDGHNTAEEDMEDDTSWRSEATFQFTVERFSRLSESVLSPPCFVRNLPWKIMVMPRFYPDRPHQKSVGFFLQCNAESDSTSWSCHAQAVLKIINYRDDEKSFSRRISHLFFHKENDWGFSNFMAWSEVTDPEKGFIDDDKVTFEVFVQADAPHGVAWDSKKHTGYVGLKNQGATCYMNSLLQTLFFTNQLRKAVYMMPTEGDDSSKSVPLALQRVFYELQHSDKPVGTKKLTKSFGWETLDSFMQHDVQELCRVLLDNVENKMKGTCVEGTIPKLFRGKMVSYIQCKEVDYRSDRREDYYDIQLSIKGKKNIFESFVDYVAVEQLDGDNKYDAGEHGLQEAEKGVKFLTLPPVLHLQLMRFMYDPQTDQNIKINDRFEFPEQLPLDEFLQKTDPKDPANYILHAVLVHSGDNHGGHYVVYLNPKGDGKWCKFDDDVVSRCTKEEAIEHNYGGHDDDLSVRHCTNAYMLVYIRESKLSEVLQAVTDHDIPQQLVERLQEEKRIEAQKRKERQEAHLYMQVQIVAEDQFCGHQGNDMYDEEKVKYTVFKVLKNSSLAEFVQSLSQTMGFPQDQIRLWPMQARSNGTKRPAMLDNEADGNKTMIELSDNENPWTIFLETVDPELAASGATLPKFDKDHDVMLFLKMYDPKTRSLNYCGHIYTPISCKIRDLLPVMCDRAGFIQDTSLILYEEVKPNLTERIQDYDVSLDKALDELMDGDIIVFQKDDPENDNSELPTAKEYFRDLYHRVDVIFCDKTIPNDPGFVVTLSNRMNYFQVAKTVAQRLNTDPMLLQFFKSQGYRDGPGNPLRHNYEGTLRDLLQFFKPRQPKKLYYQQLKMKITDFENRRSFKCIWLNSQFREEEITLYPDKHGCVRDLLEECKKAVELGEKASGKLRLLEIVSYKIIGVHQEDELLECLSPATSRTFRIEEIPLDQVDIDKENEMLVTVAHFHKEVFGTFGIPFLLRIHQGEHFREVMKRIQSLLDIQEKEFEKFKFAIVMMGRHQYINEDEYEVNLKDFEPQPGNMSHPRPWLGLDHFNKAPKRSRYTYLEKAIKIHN
Excerpt: The cDNA encoding USP7 was obtained by PCR amplification from placenta mRNA. USP7 cDNA was subcloned by PCR into a baculovirus expression vector (pFastBac-HT; Invitrogen). Full-length wild-type human USP7 and its catalytic mutant (cysteine 223 replaced by alanine, C223A) were produced as N-terminally His-tagged fusions in Spodoptera frugiperda cells (Sf9, Invitrogen), using the Bac-to-Bac Baculovirus system from Invitrogen according to the manufacturer's instructions. pFastBac-HT-B-USP7 was used to transform DH10bac cells (Invitrogen), and blue/white selection was carried out on X-gal/IPTG agar plates. Bacmid DNA was prepared by an alkaline lysis procedure. The integrity of the bacmid minipreps and their orientation were checked by PCR, using generic and specific primers. Sf9 insect cells were cultured in InsectXpress medium (Cambrex) at 27° C. and transfected with the corresponding bacmid, using GeneShuttle 40 (Q-BIOgen). Viruses were recovered in the supernatant 72 h after transfection. Viruses were amplified by infecting insect cells (Sf9 or High Five cells; invitrogen) in 50 ml InsectXpress medium in a 150 cm^2 cell culture flask with 500 μl of the supernatant from transfected Sf9 cells. Following the second round of amplification, infected cells were recovered by rapid SDS lysis, boiled for 5 min at 100° C., sonicated briefly and centrifuged for 20 min at 14,000 g. Expression levels in infected Sf9 cells were compared with those in uninfected cells. Fusion proteins were then allowed to bind to TALON beads (BD Biosciences, TALON metal affinity resin) for 30 min at 4° C. with gentle rocking. Beads were extensively washed (50 mM sodium phosphate buffer pH 7.0, 500 mM NaCl, 10 mM Imidazole, 0.5% Triton X-100 and 10% glycerol) and bound proteins were eluted in wash buffer supplemented with 250 mM Imidazole (Sigma). Eluted fractions were resolved on 4-12% NuPAGE gels (Novex, Invitrogen). Fractions containing high concentrations of purified proteins (purity>95%) were dialyzed (20 mM Tris HCl pH 7.6, 200 mM NaCl, 1 mM DTT, 1 mM EDTA and 10% glycerol) were aliquoted and snap frozen in liquid nitrogen before storage at −80° C.
USP7 was diluted in USP buffer (50 mM Tris HCl; 0.5 mM EDTA; 5 mM DTT; 0.01% Triton X-100; Bovine Serum Albumin 0.05 mg·ml^−1 pH 7.6). Compounds stocks (10 mM) were stored at −20° C. in DMSO. Compounds were tested at different concentrations: from 200 μM to 91 nM.
Reactions were performed as duplicates in Black 384 well plates (small volumes microplates; Greiner; 10 μl final reaction volume). The substrate concentration for USP7 was 300 nM Ub-AMC (Chem. Biol., 2003, 10, p. 837-846) (Boston Biochem). The concentrations of the enzyme (USP7) in specificity assays was 100 pM. The concentrations were determined in order to perform specificity assays under initial velocities at fixed substrate concentration. Compounds were pre-incubated with enzymes for 30 minutes at 25° C. Reactions were initiated by addition of substrate to the plates containing the enzymes (+/−compounds) diluted in assay buffer. Reactions were incubated for 60 minutes at 37° C. Reactions were stopped by adding acetic acid (100 mM final). Readings were performed on a Pherastar Fluorescent Reader (BMG). λ Emission 380 nm; λ Excitation=460 nm. Data (mean values+/−standard deviation) were analyzed as % of control (no compound) and plotted as percentage versus the Log of the compound concentration using GraphPad (Prism). Data were fitted to a sigmoidal model (variable slope).

Compound | IC50 (UCH-L1) [µM] | IC50 (USP7) [µM]
Cc1cccc(CN2CCC(CNC(=O)c3ccc4c(Cl)c5c(nc4c3)CCCC5)CC2)c1 [Example 1, 9-Chloro-5,6,7,8-tetrahydro-acridine-3-carboxylic acid [1-(3-methyl-benzyl)-piperidin-4-ylmethyl]-amide] | > 200 | 9.1
CCN1CCCC1CNC(=O)c1ccc2c(Cl)c3c(nc2c1)CCCC3 (centres unmarked) [Example 2, 9-Chloro-5,6,7,8-tetrahydro-acridine-3-carboxylic acid (1-ethyl-pyrrolidin-2-ylmethyl)-amide] | > 200 | 11.5
CCCN(CCC)CCNC(=O)c1ccc2c(Cl)c3c(nc2c1)CCCC3 [Example 3, 9-Chloro-5,6,7,8-tetrahydro-acridine-3-carboxylic acid (2-dipropylamino-ethyl)-amide] | > 200 | 12.4
CCCCN(CC)CCNC(=O)c1ccc2c(Cl)c3c(nc2c1)CCCC3 [Example 4, 9-Chloro-5,6,7,8-tetrahydro-acridine-3-carboxylic acid [2-(butyl-ethyl-amino)-ethyl]-amide] | > 200 | 23.5
CCN(CCCNC(=O)c1ccc2c(Cl)c3c(nc2c1)CCCC3)Cc1ccccc1 [Example 5, 9-Chloro-5,6,7,8-tetrahydro-acridine-3-carboxylic acid [3-(benzyl-ethyl-amino)-propyl]-amide] | > 200 | 22.6
CCCN(CCC)CCCNC(=O)c1ccc2c(Cl)c3c(nc2c1)CCCC3 [Example 6, 9-Chloro-5,6,7,8-tetrahydro-acridine-3-carboxylic acid (3-dipropylamino-propyl)-amide] | > 200 | 23.8
CCN(CC)CCNC(=O)c1ccc2c(Cl)c3c(nc2c1)CCCC3 [Example 7, 9-Chloro-5,6,7,8-tetrahydro-acridine-3-carboxylic acid (2-diethylamino-ethyl)-amide] | > 200 | 24.9
O=C(NCCCN1CCCC1)c1ccc2c(Cl)c3c(nc2c1)CCCC3 [Example 8, 9-Chloro-5,6,7,8-tetrahydro-acridine-3-carboxylic acid (3-pyrrolidin-1-yl-propyl)-amide] | > 200 | 25.6
CC1CCCC(C)N1CCCNC(=O)c1ccc2c(Cl)c3c(nc2c1)CCCC3 (centres unmarked) [Example 9, 9-Chloro-5,6,7,8-tetrahydro-acridine-3-carboxylic acid [3-(2,6-dimethyl-piperidin-1-yl)-propyl]-amide] | > 200 | 28.7
CCN(CC)CCCNC(=O)c1ccc2c(Cl)c3c(nc2c1)CCCC3 [Example 10, 9-Chloro-5,6,7,8-tetrahydro-acridine-3-carboxylic acid (3-diethylamino-propyl)-amide] | > 200 | 29.2
CN(C)CCNC(=O)c1ccc2c(Cl)c3c(nc2c1)CCCC3 [Example 11, 9-Chloro-5,6,7,8-tetrahydro-acridine-3-carboxylic acid (2-dimethylamino-ethyl)-amide] | > 200 | 29.8
O=C(c1ccc2c(Cl)c3c(nc2c1)CCCC3)N1CCCCCC1 [Example 12, Azepan-1-yl-(9-chloro-5,6,7,8-tetrahydro-acridin-3-yl)-methanone] | > 200 | 37.9
CCCN1CCN(CCCNC(=O)c2ccc3c(Cl)c4c(nc3c2)CCCC4)CC1 [Example 13, 9-Chloro-5,6,7,8-tetrahydro-acridine-3-carboxylic acid [3-(4-propyl-piperazin-1-yl)-propyl]-amide] | > 200 | 37.9
CN(CCCNC(=O)c1ccc2c(Cl)c3c(nc2c1)CCCC3)Cc1ccccc1 [Example 14, 9-Chloro-5,6,7,8-tetrahydro-acridine-3-carboxylic acid [3-(benzyl-methyl-amino)-propyl]-amide] | > 200 | 28.1
CN1CCN(CCCNC(=O)c2ccc3c(Cl)c4c(nc3c2)CCCC4)CC1 [Example 15, 9-Chloro-5,6,7,8-tetrahydro-acridine-3-carboxylic acid [3-(4-methyl-piperazin-1-yl)-propyl]-amide] | > 200 | 43
O=C(c1ccc2c(Cl)c3c(nc2c1)CCCC3)N1CCC(N2CCCCC2)CC1 [Example 16, [1,4′]Bipiperidinyl-1′-yl-(9-chloro-5,6,7,8-tetrahydro-acridin-3-yl)-methanone] | > 200 | 46
